These results are taken from patent publication US20050281879A1, “Excipients in drug delivery vehicles” (priority 2003, published 2005).

Structures can show the parent of a compound that is named as a salt.

A short description of data set [1]: Saturation concentration of bupivacaine hydrochloride in de-ionized water. In kind it is physicochemical. The following applies: DI water. The procedure: Bupivacaine hydrochloride (Sigma-Aldrich Corporation, St. Louis, Mo.) was dissolved in de-ionized (DI) water at a concentration of 40 mg/ml (saturation). A calculated amount of sodium hydroxide (1 N solution) was added to the solution and the pH of the final mixtures was adjusted to 10 to precipitate the BP base. The precipitated product was filtered, and further washed with DI water for at least three times. The precipitated product was dried at approximately 40° C. in vacuum for 24 hours.

The conditions of data set [2]: cited from earlier work.

Regarding `CCCCN1CCCCC1C(=O)Nc1c(C)cccc1C` (centres unmarked) [Bupivacaine hydrochloride], the “concentration in de-ionized water (saturation)” value in data set [1] was determined as 40000 µg/mL.
With `CC(=O)OCC(COC(C)=O)OC(C)=O` [triacetin], the “reported solubility in water” value in data set [2] was 7.17 grams in 100 ml of water.
